Target: T1, recombinant human NAE enzyme (Homo sapiens, UniProt Q8TBC4)
T1 construct: His (N); made in house; host or cells: Sf9 insect cells (baculovirus, Bac-to-Bac)
T1 sequence (Q8TBC4 1-463): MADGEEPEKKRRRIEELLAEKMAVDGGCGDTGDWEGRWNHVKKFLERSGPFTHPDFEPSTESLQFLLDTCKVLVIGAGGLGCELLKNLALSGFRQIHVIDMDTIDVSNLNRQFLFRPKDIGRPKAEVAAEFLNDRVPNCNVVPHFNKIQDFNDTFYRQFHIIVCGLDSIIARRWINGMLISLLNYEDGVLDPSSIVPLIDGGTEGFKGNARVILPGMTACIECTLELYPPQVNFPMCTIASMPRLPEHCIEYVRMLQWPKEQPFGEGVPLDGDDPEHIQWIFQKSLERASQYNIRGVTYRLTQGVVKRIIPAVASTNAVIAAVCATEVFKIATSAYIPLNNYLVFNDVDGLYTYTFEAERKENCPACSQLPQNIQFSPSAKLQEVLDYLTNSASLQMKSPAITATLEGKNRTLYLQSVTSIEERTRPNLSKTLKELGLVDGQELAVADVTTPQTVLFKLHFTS
T1 sequence (Q13564 1-534 partner): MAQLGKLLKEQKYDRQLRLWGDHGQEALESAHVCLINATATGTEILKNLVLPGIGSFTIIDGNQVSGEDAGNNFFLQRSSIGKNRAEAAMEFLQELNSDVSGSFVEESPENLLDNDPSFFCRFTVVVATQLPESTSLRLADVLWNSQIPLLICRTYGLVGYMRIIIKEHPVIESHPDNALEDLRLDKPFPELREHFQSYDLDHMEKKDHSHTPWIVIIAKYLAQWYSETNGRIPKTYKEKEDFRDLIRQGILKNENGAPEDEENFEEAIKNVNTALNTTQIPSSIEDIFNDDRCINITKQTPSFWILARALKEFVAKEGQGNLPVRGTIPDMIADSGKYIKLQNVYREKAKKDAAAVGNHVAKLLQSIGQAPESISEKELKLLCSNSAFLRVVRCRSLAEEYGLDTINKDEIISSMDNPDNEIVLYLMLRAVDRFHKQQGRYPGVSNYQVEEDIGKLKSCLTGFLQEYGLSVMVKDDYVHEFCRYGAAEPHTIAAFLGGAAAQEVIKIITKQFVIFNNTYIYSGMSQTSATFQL
Experiment: Nedd8-Activating Enzyme (NAE) HTRF Assay
Assay type: biochemical
Conditions: 20 μM ATP, bound given in nM
Experimental: Following manufacturer instructions, baculoviruses were generated with the Bac-to-Bac Expression System (Invitrogen) for the following proteins: untagged NAEα (APPBP1; NP_003896.1), N-terminally His-tagged NAEJ (UBE1C; NP_003959.3), untagged SAEα (SAE1; NP_005491.1), N-terminally His-tagged SAE3 (UBA2; NP_005490.1), N-terminally His-tagged murine UAE (UBE1X; NP_033483). NAEα/His-NAEβ and SAEα/His-SAEβ complexes were generated by co-infection of Sf9 cells, which were harvested after 48 hours. His-mUAE was generated by single infection of Sf9 cells and harvested after 72 hours. Expressed proteins were purified by affinity chromatography (Ni-NTA agarose, Qiagen) using standard buffers. Nedd8-Activating Enzyme (NAE) HTRF Assay. The NAE enzymatic reaction totaled 50 μL and contained 50 mM HEPES (pH 7.5), 0.05% BSA, 5 mM MgCl2, 20 μM ATP, 250 μM GSH, 0.01 μM Ubc12-GST, 0.075 μM Nedd8-Flag and 0.20 nM recombinant human NAE enzyme. The enzymatic reaction mixture, with and without compound inhibitor, was incubated at room temperature 24° C. for 105 minutes in a 384-well plate before termination with 25 μL of Stop/Detection buffer (0.1M HEPES pH 7.5, 0.05% Tween20, 20 mM EDTA, 410 mM KF, 0.53 nM Europium-Cryptate labeled monoclonal anti-FLAG M2 antibody (CisBio International) and 8.125 μg/mL PHYCOLINK goat anti-GST allophycocyanin (XL-APC) antibody (Prozyme)). After incubation for 1 hour at 24° C., quantification of the FRET was performed on the Analyst™ HT 96.384 (Molecular Devices).

SMILES | IC50 [nM]
NS(=O)(=O)OC[C@H]1C[C@@H](Nc2ccnc(NCC3CCCCC3)n2)[C@H](O)[C@@H]1O [Compound I-4, [(1R,2R,3S,4R)-4-({2-[(cyclohexylmethyl)amino]pyrimidin-4-yl}amino)-2,3-dihydroxycyclopentyl]methyl sulfamate] | > 500
NS(=O)(=O)OC[C@H]1C[C@@H](Nc2cc(N[C@H]3CCc4c(F)cccc43)ncn2)[C@H](O)[C@@H]1O [Compound I-1, {(1R,2R,3S,4R)-4-[(6-{[(1S)-4-fluoro-2,3-dihydro-1H-inden-1-yl]amino}-pyrimidin-4-yl)-amino]-2,3-dihydroxycyclopentyl}methyl sulfamate] | ≤ 500
CC1(C)C[C@H](Nc2cc(N[C@@H]3C[C@H](COS(N)(=O)=O)[C@@H](O)[C@H]3O)ncn2)c2ccccc21 [Compound I-21, {(1R,2R,3S,4R)-4-[(6-{[(1S)-3,3-dimethyl-2,3-dihydro-1H-inden-1-yl]amino}-pyrimidin-4-yl)amino]-2,3-dihydroxycyclopentyl}methyl sulfamate] | ≤ 500
NS(=O)(=O)OC[C@@H]1C[C@@H](Nc2ncnc3[nH]c(-c4ccccc4OCc4ccccc4)nc23)C[C@@H]1O [Compound I-68, [(1S,2S,4R)-4-({8-[2-(benzyloxy)phenyl]-9H-purin-6-yl}amino)-2-hydroxycyclopentyl]methyl sulfamate] | ≤ 500
C[C@H]1Cc2ccccc2[C@H]1Nc1cc(O[C@@H]2C[C@@H](COS(N)(=O)=O)[C@@H](O)C2)ncn1 [Compound I-43, {(1S,2S,4R)-2-hydroxy-4-[(6-{[(1S,2S)-2-methyl-2,3-dihydro-1H-inden-1-yl]-amino}pyrimidin-4-yl)oxy]cyclopentyl}methyl sulfamate] | ≤ 500
NS(=O)(=O)OC[C@H]1C[C@@H](Nc2cc(N[C@H]3CCCc4ccccc43)ncn2)[C@H](O)[C@@H]1O [Compound I-12, [(1R,2R,3S,4R)-2,3-dihydroxy-4-({6-[(1S)-1,2,3,4-tetrahydronaphthalen-1-ylamino]pyrimidin-4-yl}amino)cyclopentyl]methyl sulfamate] | ≤ 500
NS(=O)(=O)OC[C@@H]1C[C@@H](Nc2cc(N[C@H]3CCc4ccccc43)ncn2)[C@H](O)[C@@H]1O [Compound I-11, [(1S,2R,3S,4R)-4-({6-[(1S)-2,3-dihydro-1H-inden-1-ylamino]pyrimidin-4-yl}-amino)-2,3-dihydroxycyclopentyl]methyl sulfamate] | ≤ 500
Cc1c(N[C@H]2CCc3ccccc32)ncnc1O[C@@H]1C[C@@H](COS(N)(=O)=O)[C@@H](O)C1 [Compound I-32, [(1S,2S,4R)-4-({6-[(1S)-2,3-dihydro-1H-inden-1-ylamino]-5-methylpyrimidin-4-yl}oxy)-2-hydroxycyclopentyl]methyl sulfamate] | ≤ 500
CC1(C)C[C@H](Nc2ncnc(N[C@@H]3C[C@@H](COS(N)(=O)=O)[C@@H](O)C3)c2F)c2ccccc21 [Compound I-71, {(1S,2S,4R)-4-[(6-{[(1S)-3,3-dimethyl-2,3-dihydro-1H-inden-1-yl]amino}-5-fluoropyrimidin-4-yl)amino]-2-hydroxycyclopentyl}methyl sulfamate] | ≤ 500
COc1cccc(-c2nc3c(N[C@@H]4C[C@@H](COS(N)(=O)=O)[C@@H](O)C4)ncnc3[nH]2)c1OC [Compound I-67, ((1S,2S,4R)-4-{[8-(2,3-dimethoxyphenyl)-9H-purin-6-yl]amino}-2-hydroxycyclopentyl)methyl sulfamate] | ≤ 500

Results, then the compound that gave them:

IC50 [nM] | SMILES
> 500 | OC[C@@H]1C[C@@H](Nc2ncnc3[nH]c(-c4cccc5c4OCCO5)nc23)C[C@@H]1O [Compound I-138, (1S,2S,4R)-4-{[8-(2,3-dihydro-1,4-benzodioxin-5-yl)-9H-purin-6-yl]amino}-2-(hydroxymethyl)cyclopentanol]
≤ 500 | NS(=O)(=O)OC[C@@H]1C[C@@H](Oc2ncnc3[nH]c(-c4cccc5ccccc45)nc23)C[C@@H]1O [Compound I-87, ((1S,2S,4R)-2-hydroxy-4-{[8-(1-naphthyl)-9H-purin-6-yl]oxy}cyclopentyl)methyl sulfamate]
> 500 | OC[C@@H]1C[C@@H](Nc2ncnc3[nH]c(-c4cccc5c4CCCC5)nc23)C[C@@H]1O [Compound I-110, (1S,2S,4R)-2-(hydroxymethyl)-4-{[8-(5,6,7,8-tetrahydronaphthalen-1-yl)-9H-purin-6-yl]-amino}cyclopentanol]
≤ 500 | CO[C@H]1Cc2ccccc2[C@H]1Nc1ncnc(O[C@@H]2C[C@@H](COS(N)(=O)=O)[C@@H](O)C2)c1F [Compound I-83, {(1S,2S,4R)-4-[(5-fluoro-6-{[(1R,2S)-2-methoxy-2,3-dihydro-1H-inden-1-yl]amino}pyrimidin-4-yl)oxy]-2-hydroxycyclopentyl}methyl sulfamate]
≤ 500 | NS(=O)(=O)OC[C@@H]1C[C@@H](Nc2ncnc3[nH]c(-c4ccccc4C(F)(F)F)nc23)C[C@@H]1O [Compound I-122, [(1S,2S,4R)-2-hydroxy-4-({8-[2-(trifluoromethyl)phenyl]-9H-purin-6-yl}amino)cyclopentyl]methyl sulfamate]
≤ 500 | CO[C@@H]1CC(C)(C)c2ccccc2[C@@H]1Nc1cc(O[C@@H]2C[C@@H](COS(N)(=O)=O)[C@@H](O)C2)ncn1 [Compound I-151, {(1S,2S,4R)-2-hydroxy-4-[(6-{[(1S,2R)-2-methoxy-4,4-dimethyl-1,2,3,4-tetrahydronaphthalen-1-yl]amino}pyrimidin-4-yl)oxy]cyclopentyl}methyl sulfamate]

Same assay, conditions: 20 μM ATP, bound given in μM

SMILES | IC50 [nM]
NS(=O)(=O)OC[C@H]1C[C@@H](Nc2ccnc(NCC3CCCCC3)n2)[C@H](O)[C@@H]1O [Compound I-4, [(1R,2R,3S,4R)-4-({2-[(cyclohexylmethyl)amino]pyrimidin-4-yl}amino)-2,3-dihydroxycyclopentyl]methyl sulfamate] | < 10000
CN(Cc1ccccc1)c1cc(N[C@@H]2C[C@H](COS(N)(=O)=O)[C@@H](O)[C@H]2O)ncn1 [Compound I-22, [(1R,2R,3S,4R)-4-({6-[benzyl(methyl)amino]pyrimidin-4-yl}amino)-2,3-dihydroxycyclopentyl]methyl sulfamate] | > 10000
NS(=O)(=O)OC[C@@H]1C[C@@H](Oc2cc(N[C@H]3CCc4ccccc43)ncn2)C[C@@H]1O [Compound I-31, [(1S,2S,4R)-4-({6-[(1S)-2,3-Dihydro-1H-inden-1-ylamino]pyrimidin-4-yl}oxy)-2-hydroxycyclopentyl]methyl sulfamate] | > 10000
NS(=O)(=O)OC[C@H]1C[C@@H](O)[C@H](Nc2cc(N[C@H]3CCc4ccccc43)ncn2)C1 [Compound I-58, [(1R,3R,4R)-3-({6-[(1S)-2,3-dihydro-1H-inden-1-ylamino]pyrimidin-4-yl}-amino)-4-hydroxycyclopentyl]methyl sulfamate] | > 10000

Second part, the compound after the results:

IC50 [nM] | SMILES
> 10000 | NS(=O)(=O)OC[C@@H]1C[C@@H](Oc2ccncn2)C[C@@H]1O [Compound I-97, [(1S,2S,4R)-2-hydroxy-4-(pyrimidin-4-yloxy)cyclopentyl]methyl sulfamate]
< 10000 | OC[C@@H]1C[C@@H](Nc2ncnc3[nH]c(-c4cccc5c4OCCO5)nc23)C[C@@H]1O [Compound I-138, (1S,2S,4R)-4-{[8-(2,3-dihydro-1,4-benzodioxin-5-yl)-9H-purin-6-yl]amino}-2-(hydroxymethyl)cyclopentanol]
< 10000 | OC[C@@H]1C[C@@H](Nc2ncnc3[nH]c(-c4cccc5c4CCCC5)nc23)C[C@@H]1O [Compound I-110, (1S,2S,4R)-2-(hydroxymethyl)-4-{[8-(5,6,7,8-tetrahydronaphthalen-1-yl)-9H-purin-6-yl]-amino}cyclopentanol]
> 10000 | NS(=O)(=O)OC[C@H]1C[C@@H](Nc2ccnc(C(=O)N[C@H]3CCc4ccccc43)c2)[C@H](O)[C@@H]1O [Compound I-144, {(1R,2R,3S,4R)-4-[(2-{[(1S)-2,3-dihydro-1H-inden-1-ylamino]carbonyl}pyridin-4-yl)-amino]-2,3-dihydroxycyclopentyl}methyl sulfamate]
> 10000 | NS(=O)(=O)OC[C@@H]1C[C@@H](Oc2cc(OCc3ccc(Cl)cc3)ncn2)C[C@@H]1O [Compound I-89, [(1S,2S,4R)-4-({6-[(4-chlorobenzyl)oxy]pyrimidin-4-yl}oxy)-2-hydroxycyclopentyl]methyl sulfamate]

From patent US9718788B2, “Heteroaryl compounds useful as inhibitors of E1 activating enzymes” (MILLENNIUM PHARMACEUTICALS, INC., priority 2006, dated 2017)
